What was measured:
[1] = examination of patch for recrystallization after 24 months storage; assay type: physicochemical; settings: Example 2 matrix patch (polyvinylacetate, isocetyl alcohol)
Experimental: The matrix layer mixture is slot die coated onto the backing layer. To do this, the mixture is allowed to flow through a slot to form a thin coat of a desired thickness, containing approximately 20 mg/cm^2 of the mixture, which is deposited onto a layer of polyester film laminate backing layer (ScotchPak 1012, 3M Corporation, St. Paul, Minn.).
A layer of double-sided pressure-sensitive polyacrylate adhesive and a layer of silicone coated polyester release liner are laminated to the face of the matrix facing away from the backing layer to form a quadruple laminate of backing layer/buspirone loaded matrix layer/pressure-sensitiveadhesive layer/release liner (peel strip) layer. […] For use, one transdermal buspirone delivery device is removed from its packet, the release liner (peel strip) layer is removed and discarded, and the pressure-sensitive adhesive layer is applied firmly to the patient's arm.

depression = experiment: treatment of out-patients with clinically assessed depression; assay type: in vivo, human; settings: transdermal device of Example 6, daily for four weeks; twenty out-patients in two groups
Experimental: Transdermal delivery devices are prepared as described in Example 6. Twenty out-patients comprised of both males and females and suffering from clinically assessed depression are divided into two groups.

clinical = settings: human, in vivo
[2] = tested on: nicotine dependence / nicotine withdrawal symptoms; experiment: smoking cessation: nicotine dependence and withdrawal symptoms in individuals attempting to stop smoking; assay type: in vivo, human; settings: transdermal device of Example 1, 20 cm^2, changed once a day for 21 days; five individuals
Experimental: Transdermal delivery devices are prepared as described in Example 1.

premenstrual syndrome = experiment: treatment of women suffering from premenstrual syndrome; assay type: in vivo, human; settings: transdermal device of Example 6, five days preceding the onset of menstruation; eight women
[3] = in vivo, po; cited from earlier work
[4] = tested on: psychogenic symptomatologies; settings: oral; anxiety, depression, panic disorders, nicotine dependence and others; cited from earlier work

SMILES | recrystallization in patch on storage [1] | improvement of depression versus placebo patches (depression) | Tmax (clinical; po) | AUC (clinical; topical or ocular) | Cmax (clinical; topical or ocular) | Tmax (clinical; topical or ocular) | nicotine dependence [2] | symptoms including drowsiness, restlessness, headache, irritability, inability to concentrate, and increased appetite [2] | premenstrual syndrome symptoms (premenstrual syndrome) | absorption from the gastrointestinal tract [3] | clinical response of psychogenic symptomatologies [4]
O=C1c2ccccc2S(=O)(=O)N1CCCCN1CCN(c2ncccn2)CC1 [ipsapirone] | no recrystallization | – | – | – | – | – | – | – | – | – | –
O=C1CC2(CCCC2)CC(=O)N1CCCCN1CCN(c2ncccn2)CC1 [buspirone] | – | significant improvement | 0.8 h | 12.7 ng·h/mL | 0.79 ng/mL | 16.5 h | decrease in nicotine dependence | decrease in symptoms | decrease in their symptoms | poorly absorbed | responsive to oral buspirone

Source: patent publication US5633009A, “Transdermal administration of azapirones” (Sano Corporation, priority 1993, dated 1997)
